How the values were obtained:
[1] = target: T1, c-Kit(V654A) (Homo sapiens, UniProt P10721, V654A); assay: c-Kit(V654A) assay (33P-ATP filter binding kinase assay); format: biochemical; details: recombinant human c-Kit aa 544-end V654A, ATP 200 μM
T1 construct: recombinant human c-Kit, amino acids 544-end containing the V654A mutation; GST (N)
How it was run: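 Radiometric filter-binding read-out: substrate 33P incorporation counted by scintillation after P30 filtermat washes in 75 mM phosphoric acid and methanol. Enzyme: N-GST recombinant human c-Kit aa 544-end carrying V654A.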

[2] = Determination of Efflux-Ratio (ER) in Caco-2 cells; details: human, Caco-2, pH 7.4
[3] = target: T2, GIST430/654 cell line expressing mutated constitutively active cKIT receptor tyrosine kinase (Δ560-576 deletion and V654A point mutation) (Homo sapiens, UniProt P10721, DEL560-576/V654A); assay: Cellular cKIT autophosphorylation (phospho-Y307-cKIT, Luminex bead assay) in GIST430/654 cells; format: cell-based; details: compounds 45 min, read-out: GIST 430/654 IC50
T2 construct: endogenous in cells; host or cells: GIST430/654 cells
How it was run: (§1)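 GIST430 (Δ560-576) and imatinib-resistant GIST430/654 (plus V654A; grown with 100 nM imatinib) cells were plated in IMDM/15% FCS and treated next day with serially diluted compound for 45 min. Lysates were captured on anti-total-cKIT Luminex beads overnight at 4 °C and probed for phospho-Y307. IC50 was taken from percent of 0.3% DMSO control.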

[4] = Determination of solubility; details: 20 mM Sorensen phosphate buffer, pH 7.4, aqueous buffer, kinetic from dmso stock
Description: In a 96 well filtration plate, 2 μL of a 10 mM solution of the test compound in DMSO is added to 98 μL of 20 mM Sorensen phosphate buffer with pH 7.4. The mixture is incubated at room temperature for 120 min while agitating at 250 rpm followed by centrifugation at 2500 rpm for 3 min. After dilution by a factor of 2, the concentration of the test compound is determined using HPLC/UPLC with detection at a suitable wavelength and by comparison to a corresponding compound standard.

[5] = target: T3, GIST430 cell line expressing constitutive active cKIT receptor tyrosine kinase (Δ560-576 deletion) (Homo sapiens, UniProt P10721, DEL560-576); assay: Cellular cKIT autophosphorylation (phospho-Y307-cKIT, Luminex bead assay) in GIST430 cells; format: cell-based; details: cKIT autophosphorylation, GIST430 cells, compounds 45 min; read-out: GIST 430 IC50
T3 construct: endogenous in cells; host or cells: GIST430 cells
How it was run: as §1

T1 sequence (P10721 544-976 V654A): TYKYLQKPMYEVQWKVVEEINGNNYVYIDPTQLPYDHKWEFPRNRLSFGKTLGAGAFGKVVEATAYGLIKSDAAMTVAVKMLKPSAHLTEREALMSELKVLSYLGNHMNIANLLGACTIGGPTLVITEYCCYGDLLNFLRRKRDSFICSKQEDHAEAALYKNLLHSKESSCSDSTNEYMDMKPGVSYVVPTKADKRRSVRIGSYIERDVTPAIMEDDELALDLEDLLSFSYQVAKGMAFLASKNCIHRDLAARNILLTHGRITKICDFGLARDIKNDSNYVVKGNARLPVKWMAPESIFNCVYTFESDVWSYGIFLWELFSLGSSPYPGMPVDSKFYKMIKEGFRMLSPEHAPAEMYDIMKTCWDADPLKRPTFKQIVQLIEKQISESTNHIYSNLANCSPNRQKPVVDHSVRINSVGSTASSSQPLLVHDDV
T3 sequence (P10721 with tags, fused parts or gaps DEL560-576): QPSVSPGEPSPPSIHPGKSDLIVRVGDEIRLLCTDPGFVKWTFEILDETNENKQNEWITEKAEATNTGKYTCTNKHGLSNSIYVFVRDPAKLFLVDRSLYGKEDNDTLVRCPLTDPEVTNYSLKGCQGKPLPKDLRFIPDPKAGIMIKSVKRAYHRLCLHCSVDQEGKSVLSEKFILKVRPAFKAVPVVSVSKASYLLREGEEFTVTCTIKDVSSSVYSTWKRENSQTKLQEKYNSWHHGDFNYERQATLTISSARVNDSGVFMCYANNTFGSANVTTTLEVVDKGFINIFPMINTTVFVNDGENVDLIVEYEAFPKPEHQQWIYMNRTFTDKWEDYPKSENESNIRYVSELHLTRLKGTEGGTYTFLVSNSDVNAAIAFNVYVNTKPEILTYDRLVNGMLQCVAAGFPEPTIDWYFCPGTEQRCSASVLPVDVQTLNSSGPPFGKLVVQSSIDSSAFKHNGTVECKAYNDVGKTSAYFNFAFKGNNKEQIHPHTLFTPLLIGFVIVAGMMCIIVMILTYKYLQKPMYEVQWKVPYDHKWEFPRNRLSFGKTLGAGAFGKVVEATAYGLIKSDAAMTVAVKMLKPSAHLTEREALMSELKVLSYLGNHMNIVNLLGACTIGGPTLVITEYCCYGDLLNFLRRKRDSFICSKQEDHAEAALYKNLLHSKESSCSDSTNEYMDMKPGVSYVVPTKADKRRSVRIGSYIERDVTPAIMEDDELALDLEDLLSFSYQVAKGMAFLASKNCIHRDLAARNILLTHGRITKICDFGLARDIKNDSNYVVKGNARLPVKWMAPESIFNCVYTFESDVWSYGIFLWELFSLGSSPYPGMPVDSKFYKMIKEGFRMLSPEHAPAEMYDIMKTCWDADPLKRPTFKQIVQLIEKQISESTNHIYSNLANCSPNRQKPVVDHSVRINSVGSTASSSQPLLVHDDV
T2 sequence (P10721 with tags, fused parts or gaps DEL560-576/V654A): as the sequence (P10721 with tags, fused parts or gaps DEL560-576) above, with V612A counted along it

IC50 [1]	efflux ratio at 2 h, 1 μM [2]	IC50 [3]	solubility at 120 min [4]	IC50 [5]	Compound
8.2 nM	15 to 50	62 nM	≥ 25 µM		Cn1cc(-c2ccc(CNc3cc(-c4cnc5cc(OCCN6CCC6)ccn45)ncn3)cc2)cn1 [A99, 6-{7-[2-(azetidin-1-yl)ethoxy]imidazo[1,2-a]pyridin-3-yl}-N-{[4-(1-methyl-1H-pyrazol-4-yl)phenyl]methyl}pyrimidin-4-amine]
2.2 nM	< 15	47 nM	≥ 25 µM		c1nc(NCc2ccc(-c3cocn3)cc2)cc(-c2cnc3cc(OCCCN4CCCC4)ccn23)n1 [A252, (4-oxazol-4-yl-benzyl)-{6-[7-(3-pyrrolidin-1-yl-propoxy)-imidazo[1,2-a]pyridin-3-yl]-pyrimidin-4-yl}-amine]
6.2 nM		270 nM	≥ 25 µM		c1ccn2c(-c3cc(NCc4ccc(N5CC6CC6C5)nc4)ncn3)cnc2c1 (centres unmarked) [A149, [6-(3-aza-bicyclo[3.1.0]hex-3-yl)-pyridin-3-ylmethyl]-(6-imidazo[1,2-a]pyridin-3-yl-pyrimidin-4-yl)-amine]
1.1 nM	< 15	10000 nM	≥ 25 µM		Cc1nc(-c2ccc(CNc3cc(-c4cnc5cc(OCCCN6CCCC6)ccn45)ncn3)cc2)co1 [A242, [4-(2-methyl-oxazol-4-yl)-benzyl]-{6-[7-(3-pyrrolidin-1-yl-propoxy)-imidazo[1,2-a]pyridin-3-yl]-pyrimidin-4-yl}-amine]
25 nM		310 nM	≥ 25 µM		c1cn(-c2ccc(CNc3cc(-c4cnc5cc(OCC6CCN(C7COC7)CC6)ccn45)ncn3)cc2)nn1 [A83, {6-[7-(1-oxetan-3-yl-piperidin-4-ylmethoxy)-imidazo[1,2-a]pyridin-3-yl]-pyrimidin-4-yl}-(4-[1,2,3]triazol-1-yl-benzyl)-amine]
180 nM			≥ 25 µM		Cc1cc(N2CC[C@@H](F)C2)ncc1CNc1cc(-c2cnc3ccccn23)ncn1 [A156, [6-((R)-3-fluoro-pyrrolidin-1-yl)-4-methyl-pyridin-3-ylmethyl]-(6-imidazo[1,2-a]pyridin-3-yl-pyrimidin-4-yl)-amine]
320 nM			≥ 25 µM		c1ccn2c(-c3cc(NCc4ccc(C5=NCCN5)cc4)ncn3)cnc2c1 [A15, [4-(4,5-Dihydro-1H-imidazol-2-yl)-benzyl]-(6-imidazo[1,2-a]pyridin-3-yl-pyrimidin-4-yl)-amine]
23 nM	< 15	500 nM	≥ 25 µM		c1ccn2c(-c3cc(NCc4ccc(-n5ccnc5)cc4)ncn3)cnc2c1 [A8, (6-Imidazo[1,2-a]23yridine-3-yl-pyrimidin-4-yl)-(4-imidazol-1-yl-benzyl)-amine]
87 nM		1100 nM	≥ 25 µM		COc1ccn2c(-c3cc(NCc4ccc(N5CCCCC5=O)cc4)ncn3)cnc2c1 [A12, 1-(4-{[(6-{7-methoxyimidazo[1,2-a]24yridine-3-yl}pyrimidin-4-yl)amino]methyl}phenyl)piperidin-2-one]
180 nM			≥ 25 µM		Cc1cc(N2CCCC2)ncc1CNc1cc(-c2cnc3ccccn23)ncn1 [A154, (6-imidazo[1,2-a]pyridin-3-yl-pyrimidin-4-yl)-(4-methyl-6-pyrrolidin-1-yl-pyridin-3-ylmethyl)-amine]
1.5 nM	< 15	28 nM		4.1 nM	CN1CCC(COc2ccn3c(-c4cc(NCc5ccc(-c6cnn(C)n6)cc5)ncn4)cnc3c2)CC1 [A79, {6-[7-(1-methyl-piperidin-4-ylmethoxy)-imidazo[1,2-a]pyridin-3-yl]-pyrimidin-4-yl}-[4-(2-methyl-2H-[1,2,3]triazol-4-yl)-benzyl]-amine]
27 nM	< 15	630 nM	≥ 25 µM		Cn1cc(-c2ccc(CNc3cc(-c4cnc5cc(CCN6CCCC6)ccn45)ncn3)cc2)cn1 [A168, [4-(1-methyl-1H-pyrazol-4-yl)-benzyl]-{6-[7-(2-pyrrolidin-1-yl-ethyl)-imidazo[1,2-a]pyridin-3-yl]-pyrimidin-4-yl}-amine]
13 nM	< 15	200 nM		7.2 nM	COc1ccn2c(-c3cc(NCc4ccc(-n5ccnn5)cc4)ncn3)cnc2c1 [A18, 6-{7-methoxyimidazo[1,2-a]pyridin-3-yl}-N-{[4-(1H-1,2,3-triazol-1-yl)phenyl]methyl}pyrimidin-4-amine]
7.8 nM	< 15	52 nM		2.1 nM	Cn1ncc(-c2ccc(CNc3cc(-c4cnc5cc(OCC6CCN(C7COC7)CC6)ccn45)ncn3)cc2)n1 [A76, [4-(2-methyl-2H-[1,2,3]triazol-4-yl)-benzyl]-{6-[7-(1-oxetan-3-yl-piperidin-4-ylmethoxy)-imidazo[1,2-a]pyridin-3-yl]-pyrimidin-4-yl}-amine]
6 nM	15 to 50	43 nM		1.9 nM	Cn1cc(-c2ccc(CNc3cc(-c4cnc5cc(OCCCN[C@@H]6CCOC6)ccn45)ncn3)cc2)cn1 [A260, N-{[4-(1-methyl-1H-pyrazol-4-yl)phenyl]methyl}-6-[7-(3-{[(3R)-oxolan-3-yl]amino}propoxy)imidazo[1,2-a]pyridin-3-yl]pyrimidin-4-amine]
4 nM	< 15	98 nM	≥ 25 µM		Cn1ncc(-c2ccc(CNc3cc(-c4cnc5cc(OCCN6CCCC6)ccn45)ncn3)cc2)n1 [A73, [4-(2-methyl-2H-[1,2,3]triazol-4-yl)-benzyl]-{6-[7-(2-pyrrolidin-1-yl-ethoxy)-imidazo[1,2-a]pyridin-3-yl]-pyrimidin-4-yl}-amine]
33 nM		330 nM	≥ 25 µM		Cn1cc(-c2ccc(CNc3cc(-c4cnc5cc(CCN6CCN(C7COC7)CC6)ccn45)ncn3)cc2)cn1 [A170, [4-(1-methyl-1H-pyrazol-4-yl)-benzyl]-(6-{7-[2-(4-oxetan-3-yl-piperazin-1-yl)-ethyl]-imidazo[1,2-a]pyridin-3-yl}-pyrimidin-4-yl)-amine]
4.4 nM	< 15	63 nM		1.7 nM	Cc1cn(-c2ccn3c(-c4cc(NCc5ccc(-c6cnn(C)c6)cc5)ncn4)cnc3c2)cn1 [A267, 6-[7-(4-methyl-1H-imidazol-1-yl)imidazo[1,2-a]pyridin-3-yl]-N-{[4-(1-methyl-1H-pyrazol-4-yl)phenyl]methyl}pyrimidin-4-amine]
9.2 nM	< 15	38 nM	≥ 25 µM		Cn1ncc(-c2ccc(CNc3cc(-c4cnc5cc(OCCN6CCC6)ccn45)ncn3)cc2)n1 [A100, 6-{7-[2-(azetidin-1-yl)ethoxy]imidazo[1,2-a]pyridin-3-yl}-N-{[4-(2-methyl-2H-1,2,3-triazol-4-yl)phenyl]methyl}pyrimidin-4-amine]
6.3 nM	< 15	75 nM		2.7 nM	Cn1cc(-c2ccc(CNc3cc(-c4cnc5cc(OCCO)ccn45)ncn3)cc2)cn1 [A172, 2-({3-[6-({[4-(1-methyl-1H-pyrazol-4-yl)phenyl]methyl}amino)pyrimidin-4-yl]imidazo[1,2-a]pyridin-7-yl}oxy)ethan-1-ol]
7 nM	< 15	340 nM		48 nM	CO[C@@H]1CCN(c2ccc(CNc3cc(-c4cnc5ccccn45)ncn3)cn2)C1 [A146, 6-{imidazo[1,2-a]pyridin-3-yl}-N-({6-[(3R)-3-methoxypyrrolidin-1-yl]pyridin-3-yl}methyl)pyrimidin-4-amine]
9.1 nM	< 15	79 nM		3.6 nM	Cn1cc(-c2ccc(CNc3cc(-c4cnc5cc(OCC6CCN(C7COC7)CC6)ccn45)ncn3)cc2)cn1 [A78, [4-(1-methyl-1H-pyrazol-4-yl)-benzyl]-{6-[7-(1-oxetan-3-yl-piperidin-4-ylmethoxy)-imidazo[1,2-a]pyridin-3-yl]-pyrimidin-4-yl}-amine]
4.9 nM	< 15	220 nM		7.3 nM	F[C@H]1CCN(c2ccc(CNc3cc(-c4cnc5ccccn45)ncn3)cn2)C1 [A148, N-({6-[(3S)-3-fluoropyrrolidin-1-yl]pyridin-3-yl}methyl)-6-{imidazo[1,2-a]pyridin-3-yl}pyrimidin-4-amine]
7.8 nM	15 to 50	76 nM		4.4 nM	Cn1cc(-c2ccc(CNc3cc(-c4cnc5cc(OCCN6CCn7nncc7C6)ccn45)ncn3)cc2)cn1 [A217, (6-{7-[2-(6,7-dihydro-4H-[1,2,3]triazolo[1,5-a]pyrazin-5-yl)-ethoxy]-imidazo[1,2-a]pyridin-3-yl}-pyrimidin-4-yl)-[4-(1-methyl-1H-pyrazol-4-yl)-benzyl]-amine]
